As usually defined, the GI50 is the concentration giving 50% growth inhibition. Lower therefore signals greater sensitivity of the cells. By TGI is commonly meant the concentration at which net growth stops. The low end stands for greater sensitivity of the cells, the high end for lower sensitivity of the cells.

Common to all, as to format: functional
What all share (settings): for CC50: read-out: LC50 (the source's name)

The test system of test [1] is MCF7. Nature of the test: Cytostatic activity against human MCF7 cells by SRB assay. (In general: The SRB assay estimates cell density from bound dye.)
The nature of test [2]: Cytostatic activity against human HM02 cells by SRB assay.
Test [3] relates to HepG2. The test can be described thus: Cytostatic activity against human HepG2 cells by SRB assay.

Molecules are shown by their SMILES. A value given as a limit tells only on which side of the number the result lay.

Regarding `C[C@H]1CC[C@@]2(OC1)O[C@H]1C=C3[C@@H]4CC[C@H]5Cc6nc7c(nc6C[C@]5(C)[C@H]4C[C@@H](O)[C@]3(C)[C@H]1[C@@H]2C)C[C@@H]1CC[C@H]2C3=C[C@@H]4O[C@]5(CC[C@H](C)CO5)[C@@H](C)[C@@H]4[C@@]3(C)[C@H](O)C[C@@H]2[C@@]1(C)C7`, the GI50 in test [1] is 5.2 µM; in test [2] it was 2.6 µM; in test [3], 0.65 µM. Moreover, the TGI in test [1] is greater than 10 µM; in test [2], 7 µM; in test [3], 5 µM. Besides, the CC50 in test [1], in test [2] and in test [3] was greater than 10 µM each time.

As to `C[C@H]1CC[C@@]2(OC1)O[C@H]1C=C3[C@@H]4CC[C@H]5Cc6nc7c(nc6C[C@]5(C)[C@H]4CC(=O)[C@]3(C)[C@H]1[C@@H]2C)C[C@@H]1CC[C@H]2C3=C[C@@H]4O[C@]5(CC[C@H](C)CO5)[C@@H](C)[C@@H]4[C@@]3(C)[C@H](O)C[C@@H]2[C@@]1(C)C7`, in test [1], the GI50 is greater than 10 µM, the TGI is greater than 10 µM and the CC50 was greater than 10 µM. In addition, in test [2], the GI50 turned out to be 3 µM, the TGI was greater than 10 µM and the CC50 was greater than 10 µM. In test [3], the GI50 is greater than 10 µM, the TGI is greater than 10 µM and the CC50 was greater than 10 µM.

For `C[C@H]1CC[C@@]2(OC1)O[C@H]1C=C3[C@@H]4CC[C@H]5Cc6nc7c(nc6C[C@]5(C)[C@H]4C[C@@H](O)[C@]3(C)[C@H]1[C@@H]2C)C[C@@H]1CC[C@H]2C3=C[C@@H]4O[C@]5(CC[C@H](C)CO5)[C@@H](C)[C@@H]4[C@@]3(C)C3(C[C@@H]2[C@@]1(C)C7)OCCO3`, in test [1], the GI50 was determined as 0.1 µM, the TGI is greater than 10 µM and the CC50 was greater than 10 µM. Moreover, in test [2], halving of growth (GI50) required 2.8 µM, the TGI was greater than 10 µM and the CC50 is greater than 10 µM. Moreover, in test [3], the GI50 came to 0.07 µM, the TGI turned out to be 1.7 µM and the CC50 was greater than 10 µM.

Consider `C[C@H](CO)CC[C@H]1O[C@H]2C=C3[C@@H]4CC[C@H]5Cc6nc7c(nc6C[C@]5(C)[C@H]4C[C@@H](O)[C@]3(C)[C@H]2[C@@H]1C)C[C@@H]1CC[C@H]2C3=C[C@@H]4O[C@H](CC[C@H](C)CO)[C@@H](C)[C@@H]4[C@@]3(C)C3(C[C@@H]2[C@@]1(C)C7)OCCO3`, for which, in test [1], it took 8.2 µM to inhibit growth by half (GI50), the total growth inhibition concentration (TGI) was greater than 10 µM and the CC50 is greater than 10 µM. Besides, in test [2], halving of growth (GI50) required 0.63 µM, the TGI worked out at 1 µM and the CC50 is greater than 10 µM. In test [3], the concentration for 50% growth inhibition (GI50) amounted to 1 µM, the TGI was greater than 10 µM and the CC50 is greater than 10 µM.

Turning to `C[C@H]1CC[C@@]2(OC1)O[C@H]1C=C3[C@@H]4CC[C@H]5Cc6nc7c(nc6C[C@]5(C)[C@H]4CC(=O)[C@]3(C)[C@H]1[C@@H]2C)C[C@@H]1CC[C@H]2C3=C[C@@H]4O[C@]5(CC[C@H](C)CO5)[C@@H](C)[C@@H]4[C@@]3(C)C(=O)C[C@@H]2[C@@]1(C)C7`, in test [1], the GI50 is greater than 10 µM, the TGI was greater than 10 µM and the CC50 was greater than 10 µM. For the same compound, in test [2], the GI50 came to 5.5 µM, the concentration for total growth inhibition (TGI) stood at 7 µM and the CC50 is greater than 10 µM. Also, in test [3], the GI50 was found to be 4.6 µM, the TGI is greater than 10 µM and the CC50 was greater than 10 µM.

Regarding `C=C1C[C@H]2[C@@H](CC[C@H]3Cc4nc5c(nc4C[C@@]32C)C[C@@H]2CC[C@H]3C4=C[C@@H]6O[C@]7(CC[C@H](C)CO7)[C@@H](C)[C@@H]6[C@@]4(C)C(=O)C[C@@H]3[C@@]2(C)C5)C2=C[C@@H]3O[C@]4(CC[C@H](C)CO4)[C@@H](C)[C@@H]3[C@@]12C`, in test [1], the 50% growth inhibitory concentration (GI50) is greater than 10 µM, the TGI was greater than 10 µM and the CC50 is greater than 10 µM. Moreover, in test [2], the GI50 is greater than 10 µM, the total growth inhibition concentration (TGI) was greater than 10 µM and the CC50 was greater than 10 µM. Further, in test [3], the GI50 is greater than 10 µM, the TGI was greater than 10 µM and the CC50 was greater than 10 µM.

As for `C[C@H]1CC[C@@]2(OC1)O[C@H]1C=C3[C@@H]4CC[C@H]5Cc6nc7c(nc6C[C@]5(C)[C@H]4C[C@@H](O)[C@]3(C)[C@H]1[C@@H]2C)C[C@@H]1CC[C@H]2C3=C[C@@H]4O[C@]5(CC[C@H](C)CO5)[C@@H](C)[C@@H]4[C@@]3(C)C(CO)C[C@@H]2[C@@]1(C)C7` (stereo partly specified), in test [1], the GI50 amounted to 0.1 µM, the TGI was greater than 10 µM and the CC50 is greater than 10 µM. In addition, in test [2], the GI50 worked out at 2.3 µM, the TGI is greater than 10 µM and the CC50 is greater than 10 µM. Moreover, in test [3], the GI50 is 6.9 µM, the concentration for total growth inhibition (TGI) is 10 µM and the CC50 is greater than 10 µM.

With `C=C1C[C@H]2[C@@H](CC[C@H]3Cc4nc5c(nc4C[C@@]32C)C[C@@H]2CC[C@H]3C4=C[C@@H]6O[C@H](CC[C@H](C)CO)[C@@H](C)[C@@H]6[C@@]4(C)[C@H](O)C[C@@H]3[C@@]2(C)C5)C2=C[C@@H]3O[C@H](CC[C@H](C)CO)[C@@H](C)[C@@H]3[C@@]12C`, in test [1], halving of growth (GI50) required 5 µM, the TGI was greater than 10 µM and the CC50 was greater than 10 µM. In test [2], it took 1.7 µM to inhibit growth by half (GI50), the TGI worked out at 5.8 µM and the CC50 stood at 9.5 µM. Also, in test [3], the GI50 was 1 µM, the TGI is greater than 10 µM and the CC50 was greater than 10 µM.

For the compound `C[C@H](CO)CC[C@H]1O[C@H]2C=C3[C@@H]4CC[C@H]5Cc6nc7c(nc6C[C@]5(C)[C@H]4CC4(OCCO4)[C@]3(C)[C@H]2[C@@H]1C)C[C@@H]1CC[C@H]2C3=C[C@@H]4O[C@]5(CC[C@H](C)CO5)[C@@H](C)[C@@H]4[C@@]3(C)[C@H](O)C[C@@H]2[C@@]1(C)C7`, in test [1], it took 2.5 µM to inhibit growth by half (GI50), the TGI was found to be 10 µM and the CC50 was greater than 10 µM. In test [2], it took 0.95 µM to inhibit growth by half (GI50), the TGI was found to be 3.1 µM and the CC50 is greater than 10 µM. Further, in test [3], the concentration for 50% growth inhibition (GI50) worked out at 10 µM, the TGI is greater than 10 µM and the CC50 was greater than 10 µM.

Source of the values: ChEMBL document CHEMBL1140770, “Chemo-, regio-, and stereoselectivity of F-ring opening reactions in the cephalostatin series” (2008).
